A short description of the data set: Half life in human microsomes. The class given is ADME, Microsome.
`CN1C[C@H]2C[C@@H](N(Cc3ccc(F)c(OC4CCCC4)c3)C(=O)c3cn(C)cn3)C[C@H]2C1` gave a half-life of 78.1 min. Compound `Cn1cnc(C(=O)N(Cc2cccc(OC(F)(F)F)c2)[C@@H]2C[C@@H]3CN(CC(C)(C)O)C[C@@H]3C2)c1` came in with a half-life of 7.06 min. For `CCN1C[C@H]2C[C@@H](N(Cc3ccc(F)c(C(F)(F)F)c3)C(=O)c3cn(C)cn3)C[C@H]2C1` the value was over 120 min; for `COc1ccc(CN(C(=O)c2cn(C)cn2)[C@H]2C[C@H]3CNC[C@H]3C2)cc1OC1CCCC1`, over 120 min. For `CC(C)Oc1cccc(CN(C(=O)c2cn(C)cn2)[C@H]2C[C@H]3CNC[C@H]3C2)c1`, the half-life is over 120 min. Compound `Cn1cnc(C(=O)N(Cc2ccc(F)c(OC3CCCC3)c2)[C@H]2C[C@H]3CNC[C@H]3C2)c1` displayed a half-life of over 111 min.

Regarding `Cn1cnc(C(=O)N(Cc2cccc(OC(F)(F)F)c2)[C@@H]2C[C@@H]3CN(CC(O)c4ccccc4)C[C@@H]3C2)c1` (stereo partly specified), the half-life was 8.19 min. `CCN1C[C@H]2C[C@@H](N(Cc3cccc(OC(F)(F)F)c3)C(=O)c3cn(C)cn3)C[C@H]2C1` came in with a half-life of 10 min. `Cn1cnc(C(=O)N(Cc2ccc(F)c(C(F)(F)F)c2)[C@H]2C[C@H]3CNC[C@H]3C2)c1` showed a half-life of over 120 min. Under `Cn1cnc(C(=O)N(Cc2cccc(OC(F)(F)F)c2)[C@H]2C[C@H]3CNC[C@H]3C2)c1` stands 50 min; under `Cn1cnc(C(=O)N(Cc2cccc(OC3CCCC3)c2)[C@H]2C[C@H]3CNC[C@H]3C2)c1`, over 120 min; under `CN1C[C@H]2C[C@@H](N(Cc3cccc(OC(F)(F)F)c3)C(=O)c3cn(C)cn3)C[C@H]2C1`, 30.5 min.

Turning to `CN1C[C@H]2C[C@@H](N(Cc3ccc(F)c(C(F)(F)F)c3)C(=O)c3cn(C)cn3)C[C@H]2C1`, the half-life is over 120 min.

In the case of `Cn1cnc(C(=O)N(Cc2cccc(OC(F)(F)F)c2)[C@@H]2C[C@@H]3CN(CCC(F)(F)F)C[C@@H]3C2)c1`, the half-life is under 3.2 min.

As for `Cn1cnc(C(=O)N(Cc2ccc(F)c(C(F)(F)F)c2)[C@@H]2C[C@H]3CNC[C@H]3C2)c1`, the half-life is over 120 min. Under `CC(F)CN1C[C@H]2C[C@@H](N(Cc3cccc(OC(F)(F)F)c3)C(=O)c3cn(C)cn3)C[C@H]2C1` (stereo partly specified) stands under 3.2 min.

The half-life is the time in which the quantity being followed falls by half. Read a low half-life as rapid decline.

Source of the values: ChEMBL document CHEMBL1159083, “An octahydro-cyclopenta[c]pyrrole series of inhibitors of the type 1 glycine transporter” (Bioorg Med Chem Lett, 2010).
